This is an account of results in patent US20230095907A1, “STIMULATION OF NEURONAL PLASTICITY” (Institute of Science and Technology Austria, priority 2019, published 2023).

Data set [1] deals with purinergic receptor P2Y12 (Mus musculus, UniProt Q9CPV9). The note with it: 3×, S1. As to the method: Clopidogrel: Clopidogrel (Tocris 2490) was dissolved in dimethyl sulfoxide (DMSO, Sigma, D8418) and diluted 1:4 in phosphate buffer saline (PBS) before the injection.
Perineuronal net density per mm^3. In each image, neurons surrounded by perineuronal nets were counted using the spot detection function of Imaris (Oxford Instruments). The total cell count was normalised to the entire image volume and data are represented as number of cells surrounded by perineuronal nets per mm^3.
Perineuronal net density per mm^3: Each data point represents the count of neurons surrounded by PNN in one image per animal (biological replicates). For all following analyses, cell densities were calculated as a percentage with the respective control set to 100%. Linear regression was used to predict cell density per mm^3 (as absolute values or as percentages compared to the respective control) by experimental condition in cases where more than two levels were involved. Then, a two-sided T-test was then used to investigate differences between experimental conditions in cases where only two levels were involved. P-values were adjusted with the “p.adjust” function and the method set to “BH”.

Data set [2] has as its system perineuronal net (PNN). Kind of data set: PNN-covered cells (WFA staining) in primary somatosensory cortex after repeated KXA-anaesthesia. It counts as in vivo, C57BL/6J mice. The settings on record: female compared with male. As to the method:
(§1) C57BL/6J mice were intraperitoneal (i.p.) injected in the morning. Deep anaesthesia was confirmed based on the following parameters: • 1. Absence of the toe pinch reflex around 10 minutes after induction. • 2. Decrease in the respiratory frequency. • 3. No responses to external stimuli. • 4. Flaccid paralysis. • 5. Absence of whiskers movement.
(§2) Solution was always freshly prepared to avoid pH fluctuations.
(§3) For histological analysis, animals were shortly anesthetized with isoflurane (Zoetis) and secured to the perfusion plate. The chest was open to expose the hearth. […] The animals were initially perfused with 20 mL of phosphate-buffered saline (PBS) with heparin (100 mg/L, Sigma H0878), followed by 20 mL of 4% (w/v) paraformaldehyde (PFA, Sigma P6148) in PBS using a peristaltic pump (Behr PLP 380, speed: 25 rpm). The animals were decapitated, the retina and brain explanted, and post-fixed in 4% (w/v) PFA/PBS for 30 minutes and overnight (16h), respectively. […]
(§4) Perineuronal net density per mm^3. In each image, neurons surrounded by perineuronal nets were counted using the spot detection function of Imaris (Oxford Instruments). […]
(§5) Perineuronal net density per mm^3: Each data point represents the count of neurons surrounded by PNN in one image per animal (biological replicates). For all following analyses, cell densities were calculated as a percentage with the respective control set to 100%. […]

The subject of data set [3] is perineuronal net (PNN). In words: PNN-covered cells (WFA staining) in primary visual cortex (V1). It counts as in vivo, C57BL/6J mice. The note with it: female compared with male. As to the method: as §1, §2, §3, §4, §5
For data set [4], the system named is parvalbumin-positive neurons, microglia, astrocytes. In words: Cell density, apoptosis and astrogliosis in S1 (parvalbumin, Iba1, Caspase3, GFAP immunostaining). As to the method:
For histological analysis, animals were shortly anesthetized with isoflurane (Zoetis) and secured to the perfusion plate. The chest was open to expose the hearth. […] The animals were initially perfused with 20 mL of phosphate-buffered saline (PBS) with heparin (100 mg/L, Sigma H0878), followed by 20 mL of 4% (w/v) paraformaldehyde (PFA, Sigma P6148) in PBS using a peristaltic pump (Behr PLP 380, speed: 25 rpm). The animals were decapitated, the retina and brain explanted, and post-fixed in 4% (w/v) PFA/PBS for 30 minutes and overnight (16h), respectively. Then, the tissues were washed in PBS and stored at 4° C. with 0.025% (w/v) sodium azide (VWR 786-299). For cryoprotection, the tissue was transferred in 30% (w/v) sucrose (Sigma 84097) in PBS and incubated overnight at 4° C. To increase antibody permeability, the brain slices were frozen over dry-ice and thawed at room temperature for three cycles.
P-values were adjusted with the “p.adjust” function and the method set to “BH”.

The subject of data set [5] is gamma oscillations in the brain. Kind of data set: Power spectrum analysis of brain oscillations after repeated ketamine exposure. The data set is classed as in vivo.
The conditions of data set [6]: ketamine; cited from earlier work.

purinergic receptor P2Y12, sequence (Q9CPV9 whole entry): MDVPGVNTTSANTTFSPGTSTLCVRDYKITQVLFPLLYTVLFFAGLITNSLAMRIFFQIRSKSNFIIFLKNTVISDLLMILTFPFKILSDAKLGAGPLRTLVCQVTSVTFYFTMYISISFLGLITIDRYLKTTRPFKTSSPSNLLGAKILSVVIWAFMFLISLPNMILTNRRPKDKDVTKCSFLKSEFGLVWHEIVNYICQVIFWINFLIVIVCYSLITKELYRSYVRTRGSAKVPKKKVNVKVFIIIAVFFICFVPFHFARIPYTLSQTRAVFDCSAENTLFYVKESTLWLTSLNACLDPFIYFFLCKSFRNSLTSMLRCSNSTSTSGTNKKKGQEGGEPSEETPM

`COC(=O)[C@H](c1ccccc1Cl)N1CCc2sccc2C1` [clopidogrel]: the “loss of PNN-covered cells” value in data set [1] (50 mg/Kg clopidogrel i.p. 5 minutes before KXA) is recorded as “prevented ketamine-mediated loss of PNN-covered cells”. In addition, the “microglia interaction with the PNN structure” value in data set [1] (clopidogrel i.p. 5 minutes before KXA) was “microglia showed less interaction with the PNN structure”.

On to `CNC1(c2ccccc2Cl)CCCCC1=O` (stereo not drawn) [ketamine, 2-(2-chlorophenyl)-2-(methylamino)cyclohexan-1-one], for which the “sex difference in the action (PNN loss) of repeated exposure” value in data set [2] is recorded as “accelerated in females”. Besides, the “sex difference in PNN recovery rate” value in data set [3] is listed as “recovery rate was similar”. Moreover, in data set [4] (repeated ketamine exposure), the apoptosis entry is “does not induce apoptosis” and the parvalbumin-positive neuron density result is “does not induce apoptosis or alteration in parvalbumin-positive neuron density”. In data set [4] (repeated ketamine exposure (6×KXA)), the “astrogliosis (GFAP)” value is reported as “nor induce astrogliosis”. Moreover, in data set [5], the “60 Hz frequency gamma oscillations in the brain” value was “increase in 60 Hz frequency gamma oscillations”. Also, in data set [6], the half-life is 2 h.
